# Laboratory results taken from patent US9902702B2, “Spirocycloheptanes as inhibitors of rock” (BRISTOL-MYERS SQUIBB COMPANY, priority 2014, dated 2018).
# Structures can show the parent of a compound that is named as a salt.
# Target: ROCK2 (Homo sapiens, UniProt O75116)
# Assay: ROCK assay: phosphorylation of FITC peptide substrate, LABCHIP 3000 mobility shift
# Format: biochemical
# Settings: 5 μM ATP, 1.5 μM peptide substrate; read-out: ROCK2 Activity (ROCK IC50 range)
# Method in brief: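 Rho kinase variant phosphorylates 1.5 μM FITC-AHA-AKRRRLSSLRA-OH with 5 μM ATP in 20 mM HEPES pH 7.5, 20 mM MgCl2, 0.015% Brij-35, 4 mM DTT, DMSO <2%. EDTA stops the reaction, and phospho and non-phospho peptides are resolved by LabChip 3000 mobility shift. IC50 from dose-response curve fit.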
# ROCK2, sequence (O75116 whole entry, species assumed): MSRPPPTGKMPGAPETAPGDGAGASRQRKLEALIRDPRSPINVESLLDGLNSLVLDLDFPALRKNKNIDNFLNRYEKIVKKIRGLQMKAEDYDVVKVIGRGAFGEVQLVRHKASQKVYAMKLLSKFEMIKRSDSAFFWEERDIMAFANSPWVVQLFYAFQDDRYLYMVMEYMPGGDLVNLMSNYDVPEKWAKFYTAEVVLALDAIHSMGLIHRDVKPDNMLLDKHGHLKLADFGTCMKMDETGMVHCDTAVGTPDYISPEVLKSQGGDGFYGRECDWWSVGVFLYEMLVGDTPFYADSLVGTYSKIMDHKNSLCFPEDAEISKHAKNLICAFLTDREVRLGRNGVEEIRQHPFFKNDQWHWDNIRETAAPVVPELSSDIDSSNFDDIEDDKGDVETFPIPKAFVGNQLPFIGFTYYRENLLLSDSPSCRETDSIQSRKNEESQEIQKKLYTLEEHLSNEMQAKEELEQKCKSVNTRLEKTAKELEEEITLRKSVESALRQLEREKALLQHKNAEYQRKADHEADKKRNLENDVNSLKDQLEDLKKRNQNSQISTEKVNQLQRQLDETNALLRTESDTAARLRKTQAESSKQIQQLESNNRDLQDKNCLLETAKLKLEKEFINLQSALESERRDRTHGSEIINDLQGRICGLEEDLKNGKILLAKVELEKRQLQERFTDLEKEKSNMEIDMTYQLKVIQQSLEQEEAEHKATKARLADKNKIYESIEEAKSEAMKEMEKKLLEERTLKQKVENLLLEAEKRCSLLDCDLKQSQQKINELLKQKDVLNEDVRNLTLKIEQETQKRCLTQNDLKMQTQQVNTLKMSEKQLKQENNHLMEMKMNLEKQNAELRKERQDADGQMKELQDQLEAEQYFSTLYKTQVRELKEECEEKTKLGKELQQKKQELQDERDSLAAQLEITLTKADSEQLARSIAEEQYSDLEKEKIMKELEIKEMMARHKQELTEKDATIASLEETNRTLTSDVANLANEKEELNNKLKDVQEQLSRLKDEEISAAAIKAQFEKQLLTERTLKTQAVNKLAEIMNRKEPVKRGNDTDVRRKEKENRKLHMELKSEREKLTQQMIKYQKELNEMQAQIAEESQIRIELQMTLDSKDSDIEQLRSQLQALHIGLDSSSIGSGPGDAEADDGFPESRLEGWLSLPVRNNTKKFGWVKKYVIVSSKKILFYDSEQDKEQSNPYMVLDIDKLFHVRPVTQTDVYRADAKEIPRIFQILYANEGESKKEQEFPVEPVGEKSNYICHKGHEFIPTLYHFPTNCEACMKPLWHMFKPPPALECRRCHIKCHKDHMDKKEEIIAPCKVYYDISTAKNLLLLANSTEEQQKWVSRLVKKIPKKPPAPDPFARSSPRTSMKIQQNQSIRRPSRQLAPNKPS
row,IC50 [nM],SMILES
1,5.1 to 15,"COc1ccc2c(c1)CN(C(=O)NC1CC3(C1)CC(c1n[nH]c(=O)c4ccccc14)C3)C2 [Example 263, 5-methoxy-N-((aR)-6-(4-oxo-3,4-dihydrophthalazin-1-yl)spiro[3.3]heptan-2-yl)isoindoline-2-carboxamide]"
2,15.1 to 100,"O=C(NC1CC2(C1)CC(c1n[nH]c(=O)c3ccccc13)C2)N1Cc2ccncc2C1 [Example 264, N-((aR)-6-(4-oxo-3,4-dihydrophthalazin-1-yl)spiro[3.3]heptan-2-yl)-1H-pyrrolo[3,4-c]pyridine-2(3H)-carboxamide]"
3,100 to 2100,"O=C(N[C@H]1CC2(C1)C[C@H](c1n[nH]c(=O)c3ccccc31)C2)N1CC2(CCNCC2)c2ccccc21 (stereo partly drawn) [Example 265, N-((aR)-6-(4-oxo-3,4-dihydrophthalazin-1-yl)spiro[3.3]heptan-2-yl)spiro[indoline-3,4′-piperidine]-1-carboxamide]"
4,100 to 2100,"[H][C@]1(c2n[nH]c(=O)c3ccccc32)C[C@]2(C[C@@H](N(C)C(=O)c3nn(C)c4ccccc34)C2)C1 (stereo partly drawn) [Example 266, N,1-dimethyl-N-((aR)-6-(4-oxo-3,4-dihydrophthalazin-1-yl)spiro[3.3]heptan-2-yl)-1H-indazole-3-carboxamide]"
5,100 to 2100,"[H][C@]1(c2n[nH]c(=O)c3ccccc32)C[C@]2(C[C@@H](N(CC)C(=O)c3nn(C)c4ccccc34)C2)C1 (stereo partly drawn) [Example 267, N-ethyl-1-methyl-N-((aR)-6-(4-oxo-3,4-dihydrophthalazin-1-yl)spiro[3.3]heptan-2-yl)-1H-indazole-3-carboxamide]"
6,0.2 to 2,"[H][C@]1(c2n[nH]c(=O)c3ccccc32)C[C@]2(C[C@@H](NC(=O)c3cnn4cc(OCC(C)(C)OC(=O)CN)ccc34)C2)C1 (stereo partly drawn) [Example 268, 2-methyl-1-((3-(((aR)-6-(4-oxo-3,4-dihydrophthalazin-1-yl)spiro[3.3]heptan-2-yl)carbamoyl)pyrazolo[1,5-a]pyridin-6-yl)oxy)propan-2-yl2-aminoacetate, TFA]"
7,0.2 to 2,"[H][C@]1(c2n[nH]c(=O)c3ccccc32)C[C@]2(C[C@@H](NC(=O)c3cnn4cc(OCC(C)(C)OC(=O)[C@@H](N)C(C)C)ccc34)C2)C1 (stereo partly drawn) [Example 269, (S)-2-methyl-1-((3-(((aR)-6-(4-oxo-3,4-dihydrophthalazin-1-yl)spiro[3.3]heptan-2-yl)carbamoyl)pyrazolo[1,5-a]pyridin-6-yl)oxy)propan-2-yl2-amino-3-methylbutanoate, TFA]"
8,0.2 to 2,"[H][C@]1(c2n[nH]c(=O)c3ccccc32)C[C@]2(C[C@@H](NC(=O)c3cnn4cc(OCC(C)(C)OC(=O)[C@H](C)N)ccc34)C2)C1 (stereo partly drawn) [Example 270, (S)-2-methyl-1-((3-(((aR)-6-(4-oxo-3,4-dihydrophthalazin-1-yl)spiro[3.3]heptan-2-yl)carbamoyl)pyrazolo[1,5-a]pyridin-6-yl)oxy)propan-2-yl2-aminopropanoate, TFA]"
9,2.01 to 5,"CC(C)(O)COc1ccc2c(C(=O)NC3CC4(C3)CC(c3c[nH]c(=O)c5ccccc35)C4)cnn2c1 (stereo not drawn) [Example 271, 6-(2-hydroxy-2-methylpropoxy)-N-(6-(1-oxo-1,2-dihydroisoquinolin-4-yl)spiro[3.3]heptan-2-yl)pyrazolo[1,5-a]pyridine-3-carboxamide]"
10,5.1 to 15,"CC(C)(C)OC(=O)N1CCc2c(C(=O)N[C@H]3CC4(C3)C[C@H](c3n[nH]c(=O)c5ccccc53)C4)csc2C1 (stereo partly drawn) [Example 272, tert-butyl 3-(((aR)-6-(4-oxo-3,4-dihydrophthalazin-1-yl)spiro[3.3]heptan-2-yl)carbamoyl)-4,5-dihydrothieno[2,3-c]pyridine-6(7H)-carboxylate]"
11,5.1 to 15,"CC(=O)N1CCc2c(C(=O)N[C@H]3CC4(C3)C[C@H](c3n[nH]c(=O)c5ccccc53)C4)csc2C1 (stereo partly drawn) [Example 274, 6-acetyl-N-((aR)-6-(4-oxo-3,4-dihydrophthalazin-1-yl)spiro[3.3]heptan-2-yl)-4,5,6,7-tetrahydrothieno[2,3-c]pyridine-3-carboxamide]"
12,5.1 to 15,"COC(=O)N1CCc2c(C(=O)N[C@H]3CC4(C3)C[C@H](c3n[nH]c(=O)c5ccccc53)C4)csc2C1 (stereo partly drawn) [Example 275, methyl 3-(((aR)-6-(4-oxo-3,4-dihydrophthalazin-1-yl)spiro[3.3]heptan-2-yl)carbamoyl)-4,5-dihydrothieno[2,3-c]pyridine-6(7H)-carboxylate]"
13,15.1 to 100,"CS(=O)(=O)N1CCc2c(C(=O)N[C@H]3CC4(C3)C[C@H](c3n[nH]c(=O)c5ccccc53)C4)csc2C1 (stereo partly drawn) [Example 276, 6-(methylsulfonyl)-N-((aR)-6-(4-oxo-3,4-dihydrophthalazin-1-yl)spiro[3.3]heptan-2-yl)-4,5,6,7-tetrahydrothieno[2,3-c]pyridine-3-carboxamide]"
14,0.2 to 2,"Cn1cc(-c2ccc3c(C(=O)N[C@H]4CC5(C4)C[C@H](c4n[nH]c(=O)c6ccccc64)C5)onc3c2)cn1 (stereo partly drawn) [Example 277, 6-(1-methyl-1H-pyrazol-4-yl)-N-((aR)-6-(4-oxo-3,4-dihydrophthalazin-1-yl)spiro[3.3]heptan-2-yl)benzo[c]isoxazole-3-carboxamide]"
15,5.1 to 15,"CC(C)(O)Cn1nc(C(=O)NC2CC3(C2)CC(c2n[nH]c(=O)n4cccc24)C3)c2ccccc21 (stereo not drawn) [Example 278, 1-(2-hydroxy-2-methylpropyl)-N-(6-(4-oxo-3,4-dihydropyrrolo[1,2-d][1,2,4]triazin-1-yl)spiro[3.3]heptan-2-yl)-1H-indazole-3-carboxamide, TFA]"
16,2.01 to 5,"CC(C)(O)COc1ccc2c(C(=O)NC3CC4(C3)CC(c3n[nH]c(=O)n5cccc35)C4)cnn2c1 (stereo not drawn) [Example 279, 6-(2-hydroxy-2-methylpropoxy)-N-(6-(4-oxo-3,4-dihydropyrrolo[1,2-d][1,2,4]triazin-1-yl)spiro[3.3]heptan-2-yl)pyrazolo[1,5-a]pyridine-3-carboxamide, TFA]"
17,5.1 to 15,"Cn1nc(C(=O)NC2CC3(C2)CC(c2n[nH]c(=O)n4cccc24)C3)c2ccccc21 (stereo not drawn) [Example 280, 1-methyl-N-(6-(4-oxo-3,4-dihydropyrrolo[1,2-d][1,2,4]triazin-1-yl)spiro[3.3]heptan-2-yl)-1H-indazole-3-carboxamide, TFA]"
18,5.1 to 15,"Cc1ccn2c(=O)[nH]nc(C3CC4(CC(NC(=O)c5cnn6cc(OCC(C)(C)O)ccc56)C4)C3)c12 (stereo not drawn) [Example 281, 6-(2-hydroxy-2-methylpropoxy)-N-(6-(8-methyl-4-oxo-3,4-dihydropyrrolo[1,2-d][1,2,4]triazin-1-yl)spiro[3.3]heptan-2-yl)pyrazolo[1,5-a]pyridine-3-carboxamide, TFA]"
19,100 to 2100,"O=C(NC1CC2(C1)CC(c1n[nH]c(=O)c3ccccc13)C2)c1cnn2cccnc12 [Example 282, N-((aR)-6-(4-oxo-3,4-dihydrophthalazin-1-yl)spiro[3.3]heptan-2-yl)pyrazolo[1,5-a]pyrimidine-3-carboxamide]"
20,100 to 2100,"Cc1cc(C)cc(Nc2ccc3ncc(C(=O)NC4CC5(C4)CC(c4n[nH]c(=O)c6ccccc46)C5)n3n2)c1 [Example 283, 6-((3,5-dimethylphenyl)amino)-N-((aR)-6-(4-oxo-3,4-dihydrophthalazin-1-yl)spiro[3.3]heptan-2-yl)imidazo[1,2-b]pyridazine-3-carboxamide]"
21,2.01 to 5,"O=C(N[C@H]1CC2(C1)C[C@H](c1n[nH]c(=O)c3ccccc31)C2)c1onc2cc(Br)ccc12 (stereo partly drawn) [Example 284, 6-bromo-N-((aR)-6-(4-oxo-3,4-dihydrophthalazin-1-yl)spiro[3.3]heptan-2-yl)benzo[c]isoxazole-3-carboxamide]"
